Source: patent publication US20040024024A1, “Aromatic sulfone hydroxamates and their use as protease inhibitors” (priority 2001, published 2004)

How the values were obtained:
Human recombinant MMP-13 = target: T1, Human recombinant MMP-13 (Homo sapiens, UniProt P45452); experiment: In vitro MMP inhibition, IC50 determination (fluorogenic substrate I); format: biochemical
T1 construct: made in house; host or cells: baculovirus / insect cells
Summary of the method: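 Fluorescence at 415 nm (excitation 328 nm) reports Gly-Leu cleavage of 4 μM quenched methoxycoumarin peptide substrate I. Human recombinant MMP-13, activated by trypsin or APMA, was incubated at room temperature with varied inhibitor concentrations in pH 7.5 Tris/NaCl/CaCl2 buffer; IC50 derived from reduced fluorescence.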

Human recombinant MMP-1 = target: T2, Human recombinant MMP-1 (Homo sapiens, UniProt P03956); experiment: In vitro MMP inhibition, Ki determination (fluorogenic substrate II); format: biochemical
T2 construct: made in house; host or cells: MMP-1-transfected HT-1080 cells (spent media)
T2 sequence (P03956 100-469): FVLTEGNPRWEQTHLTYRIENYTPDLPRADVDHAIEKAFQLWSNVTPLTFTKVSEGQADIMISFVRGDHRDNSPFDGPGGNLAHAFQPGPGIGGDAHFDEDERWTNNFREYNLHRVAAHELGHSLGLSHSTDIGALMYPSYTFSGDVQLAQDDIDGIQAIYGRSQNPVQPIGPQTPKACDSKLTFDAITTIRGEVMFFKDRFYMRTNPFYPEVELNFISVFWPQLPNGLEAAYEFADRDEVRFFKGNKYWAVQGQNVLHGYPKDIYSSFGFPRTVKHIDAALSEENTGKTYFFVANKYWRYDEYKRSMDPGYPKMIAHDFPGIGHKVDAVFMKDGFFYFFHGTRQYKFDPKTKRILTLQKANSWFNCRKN
Procedure: Several hydroxamates and salts thereof were analyzed in in vitro assays to determine their ability to inhibit the MMP cleavage of peptide substrates. Inhibition (Ki) and IC50 constants were calculated from the assayed hydroxamate-MMP interactions.
Human recombinant MMP-1, MMP-2, MMP-9, MMP-13, and MMP-14 were used in this assay. All enzymes were prepared in Assignee's laboratories following usual laboratory procedures. Protocols for the preparation and use of these enzymes are available in the scientific literature. See, e.g., Enzyme Nomenclature (Academic Press, San Diego, Calif., 1992) (and the citations therein). See also, Frije et al., J. Biol. Chem., 26(24), 16766-73 (1994).
The MMP-1 proenzyme was purified from the spent media of MMP-1-transfected HT-1080 cells provided by Dr. Harold Welgus of Washington University (St. Louis, Mo.). The protein was purified on a zinc chelating column.
All MMPs were activated using 4-aminophenylmercuric acetate (“APMA”, Sigma Chemical, St. Louis, Mo.) or trypsin. MMP-9 also was activated using human recombinant MMP-3 (purified in Assignee's laboratory following standard cloning and purification techniques).
Two fluorogenic, methoxycoumarin-containing polypeptide substrates were used in the MMP inhibition assays:
MCA-ArgProLeuGlyLeuDpaAlaArgGluArgNH2 (II)
Here, “Dpa” is 3-(2,4-dinitrophenyl)-L-2,3-diaminopropionyl group, and “MCA” is 7-methoxycoumarin-4-yl acetyl. Substrate (I) was purchased from Baychem (Redwood City, Calif.), and substrate II was prepared Assignee's laboratory. Substrate I was used in the IC50 determination assays, while substrate II was used in the Ki determination assays. In the absence of MMP inhibitory activity, either substrate is cleaved at the Gly-Leu peptide bond. This cleavage separates the highly fluorogenic peptide from the 2,4-dinitrophenyl quencher, thus resulting in increase of fluorescent intensity.
The stock solutions of the assayed hydroxamates (or salts thereof) were prepared in 1% dimethyl sulfoxide (DMSO). These stock solutions were diluted in Buffer A (100 mM Tris-HCl, 100 mM NaCl, 10 mM CaCl2, 0.05% polyoxyethylene 23 lauryl ether, pH 7.5) to obtain solutions with different hydroxamate concentrations, i.e., assay solutions with different concentrations of the assayed MMP inhibitory compound. The experiment controls contained the same amount of Buffer A/DMSO as the assayed sample, but contained no hydroxamate (or salt thereof).
The assays from which the Ki determinations were made were performed as follows. The assayed hydroxamate samples were incubated in separate wells of untreated white polystyrene plates (Nunc Nalgene International, Rochester, N.Y.), and analyzed on a Tecan SpectraFlour Plus plate reader. The excitation wavelength was 330 nm, and the emission wavelength—420 nm. All samples (assayed hydroxamates and controls) were incubated in separate plate wells at room temperature for 1 hr in the presence of 4 μM of MMP substrate (II). In the absence of MMP inhibitory activity, substrate II was cleaved at the Gly-Leu bond resulting in an increase of relative fluorescence. Inhibition was observed as a reduced rate of this increase in relative fluorescence. The various hydroxamates were analyzed using a single low enzyme concentration with a single substrate concentration fixed at or below the Km. This protocol is a modification of method by Knight et al., FEBS Lett., 296(3), 263-266 (1992). Apparent inhibitory constants were determined by non-linear regression of reaction velocity as a function of inhibitor and enzyme concentration using Morrison's equation, as described by Kuzmic, Anal. Biochem. 286, 45-50 (2000). Modifications were made in the non-linear regression method to allow a common control reaction rate and effective enzyme concentration to be shared between all dose-response relationships on a given assay plate. […]

SMILES | IC50 (Human recombinant MMP-13; value outside parenthesis) | Ki (Human recombinant MMP-1; value in parenthesis) | IC50 (Human recombinant MMP-13; value outside parentheses) | Ki (Human recombinant MMP-1; value in parentheses)
O=C(NO)C1(S(=O)(=O)c2ccc(OCCCc3ccnc(-c4ccccc4)c3)cc2)CCOCC1 [Example 197] | 0.5 nM | > 10000 nM |  | 
O=C(NO)C1(S(=O)(=O)c2ccc(OCCCc3cncc(Br)c3)cc2)CCOCC1 [Example 522] |  |  | 0.3 nM | > 10000 nM
CCN1CCC(C(=O)NO)(S(=O)(=O)c2ccc(OCCCSc3nc4ccccc4s3)cc2)CC1 [Example 591] |  |  | 0.3 nM | > 10000 nM

Second part, the compound after the results:

IC50 (Human recombinant MMP-13; value outside parenthesis) | Ki (Human recombinant MMP-1; value in parenthesis) | IC50 (Human recombinant MMP-13; value outside parentheses) | Ki (Human recombinant MMP-1; value in parentheses) | SMILES
0.8 nM | > 10000 nM |  |  | O=C(NO)C1(S(=O)(=O)c2ccc(OCCCc3cccc(Br)c3)cc2)CCOCC1 [Example 154]
 |  | 0.1 nM | > 10000 nM | O=C(NO)C1(S(=O)(=O)c2ccc(OCCCc3cc(-c4ccc(F)cc4F)cs3)cc2)CCOCC1 [Example 587]
